Test results published in ChEMBL document CHEMBL4813964, “2,5-Disubstituted furan derivatives containing 1,3,4-thiadiazole moiety as potent α-glucosidase and E. coli β-glucuronidase inhibitors” (Eur J Med Chem, 2021).

Tests used:
[1] = Inhibition of Saccharomyces cerevisiae alpha-glucosidase assessed as reduction in PNP formation using alpha-PNPG as substrate incubated for 30 mins
Saccharomyces cerevisiae [2] = assay: Inhibition of Saccharomyces cerevisiae alpha-glucosidase assessed as reduction in PNP formation at 10 uM using alpha-PNPG as substrate incubated for 30 mins relative to control
[3] = Inhibition of Escherichia coli […] expressed in Escherichia coli BL21 (DE3) assessed as reduction in PNP formation using beta-PNPG as substrate incubated for 30 mins
Escherichia coli [4] = assay: Inhibition of recombinant Escherichia coli […] expressed in Escherichia coli BL21(DE3) assessed as reduction in PNP formation at 10 uM using beta-PNPG as substrate incubated for 30 mins relative to control
L02 = assay: Cytotoxicity against human L02 cells assessed as reduction in cell viability incubated for 48 hrs by CCK8 assay; assay type: cell-based; conditions: L02, 48 h
Escherichia coli [5] = assay: Potency index, ratio of DSL IC50 to test compound IC50 for inhibition of Escherichia coli […] expressed in Escherichia coli BL21 (DE3) assessed as reduction in PNP formation using beta-PNPG as substrate incubated for 30 mins
[6] = Uncompetitive inhibition of recombinant Escherichia coli […] expressed in Escherichia coli […] using beta-PNPG as substrate incubated for 30 mins by Lineweaver-Burk plot analysis
Saccharomyces cerevisiae [7] = assay: Potency index, ratio of ACAR IC50 to test compound IC50 for inhibition of Saccharomyces cerevisiae alpha-glucosidase assessed as reduction in PNP formation using alpha-PNPG as substrate incubated for 30 mins
[8] = Competitive inhibition of Saccharomyces cerevisiae alpha-glucosidase using alpha-PNPG as substrate incubated for 30 mins by Lineweaver-Burk plot analysis
[9] = Mixed inhibition of recombinant Escherichia coli […] expressed in Escherichia coli BL21(DE3) using beta-PNPG as substrate incubated for 30 mins by Lineweaver-Burk plot analysis

| IC50 [1] [nM] | inhibition (Saccharomyces cerevisiae [2]) [%] | IC50 [3] [nM] | inhibition (Escherichia coli [4]) [%] | Ratio IC50 (Escherichia coli [5]) | Ratio IC50 (Saccharomyces cerevisiae [7]) | Ki [8] [nM] | SMILES | IC50 (L02) [nM] | Ki [6] [nM] | Ki [9] [nM] |
| --- | --- | --- | --- | --- | --- | --- | --- | --- | --- | --- |
| 223 | 95.7 | 341 | 90.5 | – | – | – | O=C(Sc1nncs1)c1ccc(-c2ccccc2[N+](=O)[O-])o1 | > 100000 | – | – |
| 1850 | 58.7 | 796 | 78.8 | – | – | – | Cc1nnc(SC(=O)c2ccc(-c3ccc(F)cc3)o2)s1 | – | – | – |
| 863 | 90.8 | 415 | 96.1 | – | – | – | Cc1nnc(SC(=O)c2ccc(-c3c(F)cccc3F)o2)s1 | – | – | – |
| 903 | 81.6 | 849 | 92.9 | – | – | – | O=C(Sc1nncs1)c1ccc(-c2c(F)cccc2F)o1 | – | – | – |
| 1670 | 82.5 | 1140 | 87.8 | – | – | – | O=C(Sc1nncs1)c1ccc(-c2ccccc2F)o1 | – | – | – |
| 1810 | 75.1 | – | – | – | – | – | O=C(Sc1nncs1)c1ccc(-c2ccc([N+](=O)[O-])cc2)o1 | – | – | – |
| 286 | 78.2 | 312 | 90.1 | – | – | – | Cc1ccc(-c2ccc(C(=O)Sc3nncs3)o2)cc1 | – | – | – |
| 2950 | 59.1 | 82 | 91.7 | 820 | – | – | Cc1nnc(SC(=O)c2ccc(-c3cccc(F)c3)o2)s1 | 86200 | 60 | – |
| – | 48.8 | 695 | 77.8 | – | – | – | Cc1nnc(SC(=O)c2ccc(-c3ccc(Cl)cc3)o2)s1 | – | – | – |
| 774 | 94.1 | 230 | 100 | – | – | – | Cc1nnc(SC(=O)c2ccc(-c3ccccc3Cl)o2)s1 | – | – | – |
| 613 | 79.5 | 1130 | 105 | – | – | – | O=C(Sc1nncs1)c1ccc(-c2ccccc2)o1 | – | – | – |
| 1570 | 79.6 | 212 | 74.6 | – | – | – | O=C(Sc1nncs1)c1ccc(-c2cccc([N+](=O)[O-])c2)o1 | – | – | – |
| 186 | 68.9 | 2080 | 92 | – | 2800 | 50 | O=C(Sc1nncs1)c1ccc(-c2ccc(Cl)cc2)o1 | 83300 | – | – |
| 652 | 76.5 | 526 | 94.4 | – | – | – | O=C(Sc1nncs1)c1ccc(-c2ccc(F)cc2)o1 | – | – | – |
| 1940 | 65.8 | 357 | 86.7 | – | – | – | Cc1nnc(SC(=O)c2ccc(-c3ccc(F)cc3F)o2)s1 | – | – | – |
| 1140 | 71 | 1260 | 76.4 | – | – | – | O=C(Sc1nncs1)c1ccc(-c2ccc(F)cc2F)o1 | – | – | – |
| 2740 | 69.9 | 307 | 96.6 | – | – | – | Cc1nnc(SC(=O)c2ccc(-c3ccccc3F)o2)s1 | – | – | – |
| 11000 | 50.8 | 755 | 82.7 | – | – | – | Cc1nnc(SC(=O)c2ccc(-c3ccc(Br)cc3)o2)s1 | – | – | – |
| 2500 | 62.9 | 247 | 92.9 | – | – | – | Cc1nnc(SC(=O)c2ccc(-c3ccc([N+](=O)[O-])cc3)o2)s1 | – | – | – |
| 823 | 73 | 923 | 95.9 | – | – | – | Cc1nnc(SC(=O)c2ccc(-c3ccccc3)o2)s1 | – | – | – |

The remaining lines, values behind:

| SMILES | IC50 [1] [nM] | inhibition (Saccharomyces cerevisiae [2]) [%] | IC50 [3] [nM] | inhibition (Escherichia coli [4]) [%] | Ratio IC50 (Escherichia coli [5]) | Ratio IC50 (Saccharomyces cerevisiae [7]) | Ki [8] [nM] | IC50 (L02) [nM] | Ki [6] [nM] | Ki [9] [nM] |
| --- | --- | --- | --- | --- | --- | --- | --- | --- | --- | --- |
| COc1ccc(-c2ccc(C(=O)Sc3nncs3)o2)cc1 | 239 | 74.4 | 533 | 93 | – | – | – | – | – | – |
| O=C(Sc1nncs1)c1ccc(-c2cccc(F)c2)o1 | 646 | 82.6 | 425 | 95.9 | – | – | – | – | – | – |
| COc1ccc(-c2ccc(C(=O)Sc3nnc(C)s3)o2)cc1 | – | 33.1 | 303 | 87.5 | – | – | – | – | – | – |
| Clc1ccc2c(c1)C(N1CCNCC1)=Nc1ccccc1O2 [AMOXAPINE] | – | – | 83 | 99.8 | – | – | – | – | 50 | – |
| Cc1ccc(-c2ccc(C(=O)Sc3nnc(C)s3)o2)cc1 | – | 44.4 | 508 | 85.7 | – | – | – | – | – | – |
| Cc1nnc(SC(=O)c2ccc(-c3ccccc3[N+](=O)[O-])o2)s1 | 658 | 81.6 | 564 | 98.5 | – | – | – | – | – | – |
| Cc1nnc(SC(=O)c2ccc(-c3cccc([N+](=O)[O-])c3)o2)s1 | – | 20.1 | 1200 | 92.5 | – | – | – | – | – | – |
| C[C@H]1O[C@H](O[C@H]2[C@H](O)[C@@H](O)[C@@H](O[C@H]3[C@H](O)[C@@H](O)C(O)O[C@@H]3CO)O[C@@H]2CO)[C@H](O)[C@@H](O)[C@@H]1N[C@H]1C=C(CO)[C@@H](O)[C@H](O)[C@H]1O (stereo not given in full) [ACARBOSE] | 517000 | 11.1 | – | – | – | – | 378000 | – | – | – |
| O=C(Sc1nncs1)c1ccc(-c2ccc(Br)cc2)o1 | 526 | 66.7 | 379 | 76.4 | – | – | – | – | – | – |
| O=C(O)[C@@H](O)[C@H]1OC(=O)[C@H](O)[C@H]1O [D-SACCHARIC ACID 1,4-LACTONE] | – | – | 67300 | 11.6 | – | – | – | – | – | 30900 |
| O=C(Sc1nncs1)c1ccc(-c2ccccc2Cl)o1 | 1350 | 82.1 | 5370 | 88.1 | – | – | – | – | – | – |
| Cc1nnc(SC(=O)c2ccc(-c3cccc(Cl)c3)o2)s1 | 728 | 82.5 | 551 | 99.6 | – | – | – | – | – | – |
| O=C(Sc1nncs1)c1ccc(-c2cccc(Cl)c2)o1 | 680 | 77.1 | 148 | 83.8 | – | – | – | – | – | – |
